In brackets after ≈: the same amount, converted by molar mass.
What was measured:
Assay type in all cases: cell-based
[1] = system: K. pneumoniae ATCC 700603; assay: Broth microdilution MIC, K. pneumoniae; settings: Klebsiella pneumoniae, ATCC700603, read-out: MIC (μg/mL) Gram-negative KPN
Procedure: (§1) The test compounds including vancomycin hydrochloride were supplied as a 6.4 mg/mL solution in 100% dimethyl sulfoxide (DMSO) aliquoted into individual wells of a 96-well plate (50 μL per well). […] Standardized inocula were added to the MIC test plates, which were incubated for the prescribed times at 35° C. The N. gonorrhoeae strain was incubated in an atmosphere containing 5% CO2.
(§2) The final optical density of each well at 600 nm was measured using a Tecan Spark plate reader. The compound concentration versus OD600 data were then curve fit using custom software. An MIC value was defined as the lowest compound concentration that led to an OD600 value≤0.15 for the E. coli, K. pneumoniae, P. aeruginosa, A. baumannii, or S. aureus strains. For the N. gonorrhoeae strain, an OD600 value≤0.19 was used as a cutoff to define an MIC value; this higher cut-off value was required because the N. gonorrhoeae MIC plates were covered with plastic seals that increased the background OD600 value.
(§3) JMI Laboratories followed current CLSI quality assurance practices when performing the susceptibility tests. MIC values were validated by concurrently testing the CLSI-recommended ATCC QC reference strains S. aureus ATCC 29213 and K. pneumoniae ATCC 700603. The inoculum density during susceptibility testing was monitored by bacterial colony counts. Where applicable, QC ranges for tested reference strains were those ranges approved or published by CLSI for testing in CAMHB. […] Importantly, the CLSI reference method for testing N. gonorrhoeae is the agar dilution MIC method, which was not used here. Thus, CLSI MIC QC ranges for N. gonorrhoeae could not be applied to the antimicrobials studied here.
(§4) Abbreviations: EC, E. coli (wild-type) BW25113; EC efflux^−, E. coli (tolC) JW5503-1; KPN, K. pneumoniae ATCC 700603; PSA, P. aeruginosa PAO1; PSA efflux^−, P. aeruginosa (multi-pump-gene mutant) PAM1626; ACB, A. baumannii JMI #1186154; GC, N. gonorrhoeae WHO-Z; SA, S. aureus ATCC 29213. Broth microdilution MIC values were measured in iron-depleted CAMHB for all strains except for GC, which was tested in fastidious broth.

N. gonorrhoeae WHO-Z = assay: Broth microdilution MIC, N. gonorrhoeae; settings: Neisseria gonorrhoeae, read-out: MIC (μg/mL) Gram-negative GC
Procedure: as §1, §2, §3, §4

P. aeruginosa PAO1 = assay: Broth microdilution MIC, P. aeruginosa; settings: Pseudomonas aeruginosa, iron-depleted CAMHB, OD600 ≤0.15, read-out: MIC (μg/mL) Gram-negative PSA
Procedure: as §1, §2, §3, §4

[2] = system: A. baumannii JMI #1186154; assay: Broth microdilution MIC, A. baumannii; settings: Acinetobacter baumannii, iron-depleted CAMHB, OD600 ≤0.15, read-out: MIC (μg/mL) Gram-negative ACB
Procedure: as §1, §2, §3, §4

S. aureus ATCC 29213 = assay: Broth microdilution MIC, S. aureus; settings: Staphylococcus aureus, ATCC29213, iron-depleted CAMHB, OD600 ≤0.15, read-out: MIC (μg/mL) Gram positive SA
Procedure: as §1, §2, §3, §4

[3] = system: P. aeruginosa (multi-pump-gene mutant) PAM1626; assay: Broth microdilution MIC, P. aeruginosa efflux-deficient; settings: Pseudomonas aeruginosa, read-out: MIC (μg/mL) Gram-negative PSA Efflux
Procedure: as §1, §2, §3, §4

[4] = system: E. coli (wild-type) BW25113; assay: Broth microdilution MIC, E. coli wild-type; settings: Escherichia coli, iron-depleted CAMHB, OD600 ≤0.15, read-out: MIC (μg/mL) Gram-negative EC
Procedure: as §1, §2, §3, §4

E. coli (tolC) JW5503-1 = assay: Broth microdilution MIC, E. coli efflux-deficient (tolC); settings: Escherichia coli, read-out: MIC (μg/mL) Gram-negative EC Efflux
Procedure: as §1, §2, §3, §4

| Compound | MIC [1] [µg/mL] | MIC (N. gonorrhoeae WHO-Z) [µg/mL] | MIC (P. aeruginosa PAO1) [µg/mL] | MIC [2] [µg/mL] | MIC (S. aureus ATCC 29213) [µg/mL] | MIC [3] [µg/mL] | MIC [4] [µg/mL] | MIC (E. coli (tolC) JW5503-1) [µg/mL] |
| --- | --- | --- | --- | --- | --- | --- | --- | --- |
| CNC(CC(C)C)C(=O)NC1C(=O)NC(CC(N)=O)C(=O)NC2C(=O)NC3C(=O)NC(C(=O)N[C@H](C(=O)O)c4cc(O)cc(O)c4-c4cc3ccc4O)C(O)c3ccc(c(Cl)c3)Oc3cc2cc(c3OC2OC(CO)C(O)C(O)C2OC2CC(C)(NCCCc3cn(CCCNC(=O)c4ccc(O)c(O)c4Cl)nn3)C(O)C(C)O2)Oc2ccc(cc2Cl)C1O (stereo partly drawn) [Compound 31] | > 64 | > 64 | > 64 | 64 (≈ 35.8 µM) | 8 (≈ 4.48 µM) | > 64 | > 64 | 32 (≈ 17.9 µM) |
| CNC(CC(C)C)C(=O)NC1C(=O)NC(CC(N)=O)C(=O)NC2C(=O)NC3C(=O)NC(C(=O)N[C@H](C(=O)O)c4cc(O)c(CNCCCNC(=O)c5ccc(O)c(O)c5Cl)c(O)c4-c4cc3ccc4O)C(O)c3ccc(c(Cl)c3)Oc3cc2cc(c3OC2OC(CO)C(O)C(O)C2OC2CC(C)(N)C(O)C(C)O2)Oc2ccc(cc2Cl)C1O (stereo partly drawn) [Compound 22] | > 64 | > 64 | > 64 | 4 (≈ 2.34 µM) | 64 (≈ 37.5 µM) | > 64 | 16 (≈ 9.38 µM) | 32 (≈ 18.8 µM) |
| CN[C@H](CC(C)C)C(=O)N[C@H]1C(=O)N[C@@H](CC(N)=O)C(=O)N[C@H]2C(=O)N[C@H]3C(=O)N[C@H](C(=O)N[C@H](C(=O)NCCCCNC(=O)c4cccc(O)c4O)c4cc(O)cc(O)c4-c4cc3ccc4O)[C@H](O)c3ccc(c(Cl)c3)Oc3cc2cc(c3O[C@@H]2O[C@H](CO)C(O)C(O)[C@H]2O[C@H]2CC(C)(N)[C@H](O)[C@H](C)O2)Oc2ccc(cc2Cl)[C@H]1O (stereo partly drawn) [Compound 13] | > 64 | > 64 | > 64 | 4 (≈ 2.42 µM) | 2 (≈ 1.21 µM) | > 64 | 64 (≈ 38.7 µM) | > 64 |
| CN[C@H](CC(C)C)C(=O)N[C@H]1C(=O)N[C@@H](CC(N)=O)C(=O)N[C@H]2C(=O)N[C@H]3C(=O)N[C@H](C(=O)N[C@H](C(=O)NCCCCCCCNC(=O)c4ccc(O)c(O)c4Cl)c4cc(O)cc(O)c4-c4cc3ccc4O)[C@H](O)c3ccc(c(Cl)c3)Oc3cc2cc(c3O[C@@H]2O[C@H](CO)C(O)C(O)[C@H]2O[C@H]2CC(C)(N)[C@H](O)[C@H](C)O2)Oc2ccc(cc2Cl)[C@H]1O (stereo partly drawn) [Compound 8] | > 64 | > 64 | > 64 | 2 (≈ 1.15 µM) | 4 (≈ 2.31 µM) | > 64 | 64 (≈ 37 µM) | 64 (≈ 37 µM) |
| CN[C@H](CC(C)C)C(=O)N[C@H]1C(=O)N[C@@H](CC(N)=O)C(=O)N[C@H]2C(=O)N[C@H]3C(=O)N[C@H](C(=O)N[C@H](C(=O)NCCCCNC(=O)c4ccc(O)c(O)c4Cl)c4cc(O)cc(O)c4-c4cc3ccc4O)[C@H](O)c3ccc(c(Cl)c3)Oc3cc2cc(c3O[C@@H]2O[C@H](CO)C(O)C(O)[C@H]2O[C@H]2CC(C)(N)[C@H](O)[C@H](C)O2)Oc2ccc(cc2Cl)[C@H]1O (stereo partly drawn) [Compound 5] | > 64 | > 64 | > 64 | 1 (≈ 0.592 µM) | 4 (≈ 2.37 µM) | > 64 | 8 (≈ 4.73 µM) | > 64 |
| CN[C@H](CC(C)C)C(=O)N[C@H]1C(=O)N[C@@H](CC(N)=O)C(=O)N[C@H]2C(=O)N[C@H]3C(=O)N[C@H](C(=O)N[C@H](C(=O)NCCOCCOCCNC(=O)c4ccc(O)c(O)c4Cl)c4cc(O)cc(O)c4-c4cc3ccc4O)[C@H](O)c3ccc(c(Cl)c3)Oc3cc2cc(c3O[C@@H]2O[C@H](CO)C(O)C(O)[C@H]2O[C@H]2CC(C)(N)[C@H](O)[C@H](C)O2)Oc2ccc(cc2Cl)[C@H]1O (stereo in doubt) [Compound 11] | > 64 | > 64 | > 64 | 1 (≈ 0.571 µM) | 4 (≈ 2.29 µM) | > 64 | 64 (≈ 36.6 µM) | > 64 |
